Measured values reported in patent publication US5414001A, “Antineoplastic pyrrolo[4,3,2-de]quinolin-8(1H)-ones” (American Cyanamid Company, priority 1993, dated 1995).
Counter-ions that a name gives are not always drawn. Like-named read-outs stand apart in the source and are kept apart here.

How the values were obtained:
[1] = tested on: panel of >20 human tumor cell lines; assay: In vitro tumor panel evaluation, Sulforhodamine B (SRB) cytotoxicity assay; format: cell-based; conditions: for IC50: Homo sapiens
[2] = tested on: DDP (Cisplatin resistant ovarian carcinoma cell line) / S (A2780); assay: SRB cytotoxicity ratio DDP/S (cisplatin resistance); format: cell-based, human; conditions: 2880 min
HCT15 / SKBR3 = assay: SRB cytotoxicity ratio HCT15/SKBR3 (topoisomerase resistance); format: cell-based, human; conditions: 2880 min
CaCo2 / CX1 = conditions: human, Caco-2, 48 h
Procedure: The cytotoxic activity of the pyrrolo[4,3,2-de]quinolin-8(1H)-ones against a panel of >20 human tumor cell lines is determined using the Sulforhodamine B protein dye-binding colorimetric cytotoxicity assay (SRB) described by Skehan et al. (Journal National Cancer Institute 82:1107-1112, 1990), as modified by Monks et al., (Journal National Cancer Institute 83: 757-766, 1991). […] Positive controls (i.e., etoposide) are included in every experiment. Treatments are for 48 hours, after which cells are fixed in 10% trichloroacetic acid (10% final concentration), washed five times with deionized water and stained with SRB solution (0.4% in glacial acetic acid). Protein-bound stain is solubilized with 0.1 ml tris buffer and the adsorbance values are recorded with a microplate reader. Duplicate plates of cells are fixed with trichloroacetic acid at the time of drug addition to establish To values, as described by Monks et al. (JNCl, 83: 757-766, 1991). The effect of drug treatments over the five-long range of concentrations is calculated using the formula, T--To/C--To, to determine the IC50 values.
3) The ratio values for DDP/S; CaCo2/CX1; MIP/SW620, and; HCT15/SKBR3 refer to the IC50 value for resistant cell lines included in the tumor cell panel, divided by the IC50 value for corresponding drug sensitive cell lines. For example, DDP is a Cisplatin resistant ovarian carcinoma cell line, and S is the corresponding parent drug sensitive ovarian carcinoma cell line (A2780). […] CaCo2 is a slow growing non P-glycoprotein multidrug resistant colon carcinoma cell line. MIP is a colon carcinoma cell line that expresses P-glycoprotein and is multidrug resistant; SW620 is a drug sensitive colon carcinoma cell line. HCT15 is a colon carcinoma cell line that is resistant to topoisomerase inhibitors and SKBR3 is a breast carcinoma that is very sensitive to topoisomerase inhibitors.

MIP / SW620 = assay: SRB cytotoxicity ratio MIP/SW620 (MDR, P-glycoprotein resistance); format: cell-based, human; conditions: 2880 min
[3] = Mean IC50 value for all 20 cell lines, 48 hours
[4] = IC50 resistant / IC50 sensitive cell line, cisplatin resistance
[5] = IC50 resistant / IC50 sensitive cell line, topoisomerase resistance
[6] = human, ddp/s ovarian carcinoma cells
[7] = Mean IC50 value for all 20 cell lines, 48 hours, read-out: AVG IC50
[8] = least sensitive cell line, 48 hours, read-out: MAX IC50
[9] = most sensitive cell line, 48 hours, read-out: MIN IC50
[10] = IC50 resistant / IC50 sensitive cell line, MDR (pglycoprotein) resistance

Compound	CaCO2/CX1 IC50 ratio (CaCo2 / CX1)	AVG IC50 [1, 3] [µg/mL]	DDP/S IC50 ratio [2, 4]	HCT15/SKBR3 IC50 ratio (HCT15 / SKBR3; [5])	IC50 ([1]; 48 h, read-out: AVG IC50) [µg/mL]	IC50 ([1]; 48 h, read-out: MAX IC50) [µg/mL]	IC50 ([1]; 48 h, read-out: MIN IC50) [µg/mL]	DDP/S IC50 ratio [2, 6]	HCT15/SKBR3 IC50 ratio (HCT15 / SKBR3; human, hct15/skbr3 cells)	IC50 [1, 7] [µg/mL]	IC50 [1, 8] [µg/mL]	IC50 [1, 9] [µg/mL]	MIP/SW620 IC50 ratio (MIP / SW620; [10])	MIP/SW620 IC50 ratio (MIP / SW620; human, mip/sw620 cells)	MAX IC50 ([1]; least sensitive cell line, 48 hours) [µg/mL]	MIN IC50 ([1]; most sensitive cell line, 48 hours) [µg/mL]
7-(Cyclohexylamino)-1,3,4,8-tetrahydro-5-methyl-8-oxo-pyrrolo[4,3,2-de]quinolinium trifluoroacetate [Example 41]	8.3	6.5	1.8	737.0												
CC(CCC(C)NC1=CC2=[N+](C)CCc3c[nH]c(c32)C1=O)NC1=CC2=[N+](C)CCc3c[nH]c(c32)C1=O (racemic) [Example 57, 7,7'-(1,4-Dimethyl-1,4-butanediyldiimino)-bis[1,3,4,8-tetrahydro-5-methyl-8-oxo-pyrrolo[4,3,2-de]quinolinium trifluoroacetate]	100.8				13	50	0.43	1.8	32.1							
O=C1CC2SC3CC2(C=C1Br)C1=C(N3)C(=O)c2[nH]cc3c2C1=NCC3 (centres unmarked) [Example 9, discorhabdin A]								1.4								
C[N+]1=C2C(Cl)=C(N)C(=O)c3[nH]cc(c32)CC1 [Example 10, 7-Amino-6-chloro-1,3,4,8-tetrahydro-5-methyl-8-oxo-pyrrolo[4,3,2-de]quinolinium trifluoroacetate]	0.25			1.5						5.1	10	1.29	0.7			
Cn1cc2c3c1C(=O)C(N)=C(Br)C3=NCC2 [Example 14, 7-Amino-6-bromo-3,4-dihydro-1-methyl-8-oxo-pyrrolo [4,3,2-de]quinolin-8 (1H) -one trifluoroacetate]	0.8							1.2	2.1	2.3	3.54	0.84		1.4		
Cn1cc2c3c1C(=O)C(N)=CC3=[N+](C)CC2 [Example 29, 7-Amino-1,3,4,8-tetrahydro-1,5-dimethyl-8-oxo-pyrrolo[4,3,2-de] quinolinium trifluoroacetate]	2.9				2.6	5.7	1.03		1.8					1.8		
Cn1cc2c3c1C(=O)C(N)=CC3=[N+](Cc1ccccc1)CC2 [Example 32, 7-Amino-1,3,4,8-tetrahydro-1-methyl-8-oxo-5-(phenylmethyl)-pyrrolo[4,3,2-de]quinolinium trifluoroacetate]	1.8				2.1	10	0.37		3.5					0.9		
C[N+]1=C2C=C(NCc3ccc(C(=O)O)cc3)C(=O)c3[nH]cc(c32)CC1 [Example 45, 7-[[(4-Carboxylphenyl)methyl]amino]-1,3,4,8-tetrahydro-5-methyl-8-oxo-pyrrolo[4,3,2-de]quinolinium trifluoroacetate]			1.2	1.6						33	50	8.99	1.2			
Cn1cc2c3c1C(=O)C(=O)C=C3NCC2.O=C(O)C(F)(F)F [Example 51, 1,3,4,5-Tetrahydro-1-methyl-pyrrolo[4,3,2-de]quinoline-7,8-dione trifluoroacetate]										48	50	35.6				

Further lines, with some results ahead:

CaCO2/CX1 IC50 ratio (CaCo2 / CX1)	Compound	AVG IC50 [1, 3] [µg/mL]	DDP/S IC50 ratio [2, 4]	HCT15/SKBR3 IC50 ratio (HCT15 / SKBR3; [5])	IC50 ([1]; 48 h, read-out: AVG IC50) [µg/mL]	IC50 ([1]; 48 h, read-out: MAX IC50) [µg/mL]	IC50 ([1]; 48 h, read-out: MIN IC50) [µg/mL]	DDP/S IC50 ratio [2, 6]	HCT15/SKBR3 IC50 ratio (HCT15 / SKBR3; human, hct15/skbr3 cells)	IC50 [1, 7] [µg/mL]	IC50 [1, 8] [µg/mL]	IC50 [1, 9] [µg/mL]	MIP/SW620 IC50 ratio (MIP / SW620; [10])	MIP/SW620 IC50 ratio (MIP / SW620; human, mip/sw620 cells)	MAX IC50 ([1]; least sensitive cell line, 48 hours) [µg/mL]	MIN IC50 ([1]; most sensitive cell line, 48 hours) [µg/mL]
0.7	C[N+]1=C2C(Br)=C(N)C(=O)c3[nH]c(Br)c(c32)CC1 [Example 13, 7-Amino-2,6-dibromo-1,3,4,8-tetrahydro-5-methyl-8-oxo-pyrrolo[4,3,2-de]quinolinium trifluoroacetate]		1.1	1.7						2.4	7.71	0.4	0.9			
0.8	C[N+]1=C2C=C(N)C(=O)c3c2c(cn3Cc2cccc(Cl)c2)CC1 [Example 21, 7-Amino-1-[(3-chlorophenyl]methyl]-1,3,4,8-tetrahydro-5-methyl-8-oxo-pyrrolo[4,3,2-de]quinolinium trifluoroacetate]		1.5	7.1						1.4	4.47	0.28	7.0			
1.0	COc1cccc(Cn2cc3c4c2C(=O)C(N)=CC4=[N+](C)CC3)c1 [Example 23, 7-Amino-1,3,4,8-tetrahydro-1-[(3-methoxyphenyl)methyl]-5-methyl-8-oxo-pyrrolo[4,3,2-de]quinolinium trifluoroacetate]		1.2	3.8						2.1	4.2	0.45	8.6			
7.3	COC(=O)CCNC1=CC2=[N+](C)CCc3cn(Cc4ccccc4)c(c32)C1=O [Example 25, 1,3,4,8-tetrahydro-7-[(3-methoxy-3-oxopropyl)amino]-5-methyl-8-oxo-1-(phenylmethyl)pyrrolo[4,3,2-de]quinolinium trifluoroacetate]		6.1	23.5						13	50	1.32				
15.1	COC(=O)CCNC1=CC2=[N+](C)CCc3cn(CCC(=O)OC)c(c32)C1=O [Example 27, 1,3,4,8-Tetrahydro-1-(3-methoxy-3-oxopropyl)-7-[7-[(3-methoxy-3-oxopropyl)amino]-5-methyl-8-oxo-pyrrolo[4,3,2-de]quinolinium trifluoroacetate]		5.1	288.0						15	50	0.17				
3.6	CNC1=CC2=[N+](C)CCc3cn(C)c(c32)C1=O [Example 30, 1,3,4,8-Tetrahydro-1,5-dimethyl-7-(methylamino)-8-oxo-pyrrolo[4,3,2-de]quinolinium trifluoroacetate]		1.1	12.7						4.5	25.9	0.41	65.8			
0.6	C=CC[N+]1=C2C=C(N)C(=O)c3c2c(cn3C)CC1 [Example 31, 7-Amino-1,3,4,8-tetrahydro-1-methyl-8-oxo-5-(2-propenyl)[4,3,2-de]quinolinium trifluoroacetate]		1.2	2.7						1.7	2.59	0.34	8.0			
8.3	CC(C)NC1=CC2=[N+](C)CCc3c[nH]c(c32)C1=O.O=C([O-])C(F)(F)F [Example 40, 1,3,4,8-Tetrahydro-5-methyl-7-[(2-methylethyl)amino]-8-oxo-pyrrolo[4,3,2-de]quinolinium trifluoroacetate]	5.8	1.3	102.0											50	0.25
38.0	COc1ccc(CNC2=CC3=[N+](C)CCc4c[nH]c(c43)C2=O)cc1 [Example 48, 1,3,4,8-Tetrahydro-7-[[(4-methoxyphenyl)methyl]amino]-5-methyl-8-oxo-pyrrolo[4,3,2-de]quinolinium trifluoroacetate]		11.0	2090.0						7.7	50	0.02				
4.2	Cc1[nH]c2c(c1C)C1=[N+](C)CCc3c[nH]c(c31)C2=O [Example 54, 3,5,6,7-Tetrahydro-1,8,9-trimethyl-6-oxo-2M-dipyrrolo[4,3,2-de:2',3'-h]quinolinium trifluoroacetate]		1.2	3.9						18	50	2.26				
